# PubChem BioAssay (NCI)
#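 Five compound concentrations were applied to cells in 96-well plates for 48 hours; endpoints were derived by simple linear interpolation of the resulting dose-response curve. TGI marks complete inhibition of growth.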
# Columns and labels:
# Assay in all cases: DTP human tumour cell line panel, 48 h
# [1] = test system: COLO 205 colon
# [2] = test system: NCI-H226 lung
# [3] = test system: CCRF-CEM leukemia
# [4] = test system: 786-0 renal
# [5] = test system: MDA-N
# [6] = test system: MALME-3M melanoma
# [7] = test system: NCI-H460 lung
# [8] = test system: SK-MEL-2 melanoma
# [9] = test system: UO-31 renal
# [10] = test system: U251 CNS
# [11] = test system: ACHN renal
# [12] = test system: SK-MEL-5 melanoma
# [13] = test system: OVCAR-5 ovarian
# [14] = test system: SF-539 CNS
# [15] = test system: SF-268 CNS
# [16] = test system: SNB-19 CNS
# [17] = test system: KM12 colon
# [18] = test system: SR leukemia
# [19] = test system: EKVX NSCLC
# [20] = test system: MDA-MB-435
# [21] = test system: SK-OV-3 ovarian
# [22] = test system: DU-145 prostate
# [23] = test system: SNB-75 CNS
# [24] = test system: HOP-92 NSCLC
# [25] = test system: BT-549 breast
# [26] = test system: NCI-H23 lung
# [27] = test system: MOLT-4 leukemia
# [28] = test system: UACC-62 melanoma
# [29] = test system: M14 melanoma
# [30] = test system: HT29 colon
# [31] = test system: TK-10 renal
# [32] = test system: SF-295 CNS
# [33] = test system: UACC-257 melanoma
# [34] = test system: HCT-15 colon
# [35] = test system: OVCAR-8 ovarian
# [36] = test system: SN12C renal
# [37] = test system: CAKI-1 renal
# [38] = test system: NCI/ADR-RES ovarian
# [39] = test system: HL-60(TB) leukemia
# [40] = test system: PC-3 prostate
# [41] = test system: T-47D breast
# [42] = test system: MDA-MB-231 breast
# [43] = test system: IGROV1 ovarian
# [44] = test system: OVCAR-4 ovarian
# [45] = test system: MCF7 breast
# [46] = test system: NCI-H522 lung
# [47] = test system: SK-MEL-28 melanoma
# [48] = test system: K-562 leukemia
# [49] = test system: SW-620 colon
# [50] = test system: A549 NSCLC
# [51] = test system: HS 578T breast
# [52] = test system: HCT-116 colon
# [53] = test system: HCC-2998 colon
# [54] = test system: LOX IMVI melanoma
# [55] = test system: A498 renal
# [56] = test system: OVCAR-3 ovarian
# [57] = test system: RXF 393 renal
# [58] = test system: HOP-62 NSCLC
# [59] = test system: RPMI-8226 leukemia
smiles,measurement,setting,value
CCC(C)C(=O)OC1CC2(C)C(c3ccoc3)OC(=O)CC23OC2(C)OC34C(OC(=O)C(C)C)C3(O)C(OC(=O)C5(C)OC5C)C5(C)CC3(O)C(C)(C5CC(=O)OC)C14O2 (configuration not stated),TGI,[1],57.5 µM
same,TGI,[2],> 100 µM
same,TGI,[3],74.1 µM
same,TGI,[4],> 100 µM
same,TGI,[5],> 100 µM
same,TGI,[6],> 100 µM
same,TGI,[7],> 100 µM
same,TGI,[8],> 100 µM
same,TGI,[9],> 100 µM
same,TGI,[10],> 100 µM
same,TGI,[11],> 100 µM
same,TGI,[12],87 µM
same,TGI,[13],> 100 µM
same,TGI,[14],79.6 µM
same,TGI,[15],> 100 µM
same,TGI,[16],> 100 µM
same,TGI,[17],> 100 µM
same,TGI,[18],95 µM
same,TGI,[19],> 100 µM
same,TGI,[20],> 100 µM
same,TGI,[21],> 100 µM
same,TGI,[22],> 100 µM
same,TGI,[23],> 100 µM
same,TGI,[24],> 100 µM
same,TGI,[25],> 100 µM
same,TGI,[26],> 100 µM
same,TGI,[27],65.8 µM
same,TGI,[28],> 100 µM
same,TGI,[29],> 100 µM
same,TGI,[30],> 100 µM
same,TGI,[31],> 100 µM
same,TGI,[32],> 100 µM
same,TGI,[33],> 100 µM
same,TGI,[34],> 100 µM
same,TGI,[35],> 100 µM
same,TGI,[36],> 100 µM
same,TGI,[37],> 100 µM
same,TGI,[38],> 100 µM
same,TGI,[39],38.9 µM
same,TGI,[40],> 100 µM
same,TGI,[41],> 100 µM
same,TGI,[42],> 100 µM
same,TGI,[43],> 100 µM
same,TGI,[44],> 100 µM
same,TGI,[45],66.1 µM
same,TGI,[46],> 100 µM
same,TGI,[47],> 100 µM
same,TGI,[48],> 100 µM
same,TGI,[49],> 100 µM
same,TGI,[50],> 100 µM
same,TGI,[51],> 100 µM
same,TGI,[52],> 100 µM
same,TGI,[53],> 100 µM
same,TGI,[54],> 100 µM
same,TGI,[55],> 100 µM
FC(F)(F)c1ccc2nc3n(c2c1)C(c1c(Cl)cccc1Cl)SC3 (configuration not stated),TGI,[2],35.4 µM
same,TGI,[4],28.4 µM
same,TGI,[5],24.3 µM
same,TGI,[6],29.9 µM
same,TGI,[7],35.6 µM
same,TGI,[8],42.3 µM
same,TGI,[9],26.8 µM
same,TGI,[10],32.6 µM
same,TGI,[11],32.1 µM
same,TGI,[13],30.4 µM
same,TGI,[14],33.1 µM
same,TGI,[15],41.8 µM
same,TGI,[16],34 µM
same,TGI,[56],29.4 µM
same,TGI,[17],28.3 µM
same,TGI,[18],21.4 µM
same,TGI,[19],28.6 µM
same,TGI,[20],30.5 µM
same,TGI,[21],27.9 µM
same,TGI,[22],32.3 µM
same,TGI,[23],25.8 µM
same,TGI,[57],30.9 µM
same,TGI,[24],17.7 µM
same,TGI,[25],50.3 µM
same,TGI,[26],37 µM
same,TGI,[27],> 100 µM
same,TGI,[28],28.6 µM
same,TGI,[29],30.7 µM
same,TGI,[30],30.4 µM
same,TGI,[31],35.4 µM
same,TGI,[32],30.3 µM
same,TGI,[33],29.3 µM
same,TGI,[34],29.6 µM
same,TGI,[58],29.8 µM
same,TGI,[35],46.8 µM
same,TGI,[36],32.7 µM
same,TGI,[37],28 µM
same,TGI,[38],25.7 µM
same,TGI,[39],33.2 µM
same,TGI,[40],31.5 µM
same,TGI,[41],26.9 µM
same,TGI,[42],37.7 µM
same,TGI,[43],24.1 µM
same,TGI,[44],30.5 µM
same,TGI,[45],37.9 µM
same,TGI,[46],29.7 µM
same,TGI,[47],29.5 µM
same,TGI,[49],34.9 µM
same,TGI,[50],29.5 µM
same,TGI,[51],68.9 µM
same,TGI,[52],22.4 µM
same,TGI,[53],35 µM
same,TGI,[54],> 100 µM
same,TGI,[55],34.8 µM
O=[N+]([O-])c1ccc(NC(=S)N=Nc2c(O)[nH]c3ccc(Br)cc23)cc1,TGI,[1],56.5 µM
same,TGI,[2],38.1 µM
same,TGI,[4],21.8 µM
same,TGI,[5],23.5 µM
same,TGI,[6],20.2 µM
same,TGI,[7],21.2 µM
same,TGI,[8],28.4 µM
same,TGI,[10],21.9 µM
same,TGI,[11],18 µM
same,TGI,[12],33.4 µM
same,TGI,[13],28.3 µM
same,TGI,[14],82.9 µM
same,TGI,[15],26.1 µM
same,TGI,[56],21.8 µM
same,TGI,[17],22 µM
same,TGI,[18],42.7 µM
same,TGI,[20],25.4 µM
same,TGI,[21],28.9 µM
same,TGI,[22],24.2 µM
same,TGI,[23],30.7 µM
same,TGI,[57],26.5 µM
same,TGI,[24],22.7 µM
same,TGI,[25],11.1 µM
same,TGI,[26],12.9 µM
same,TGI,[27],> 100 µM
same,TGI,[28],18.3 µM
same,TGI,[30],24.9 µM
same,TGI,[31],28.5 µM
same,TGI,[32],22 µM
same,TGI,[33],29.8 µM
same,TGI,[34],12.9 µM
same,TGI,[58],30.4 µM
same,TGI,[35],20 µM
same,TGI,[36],23.8 µM
same,TGI,[37],20.6 µM
same,TGI,[38],6.13 µM
same,TGI,[39],7.09 µM
same,TGI,[40],20.7 µM
same,TGI,[41],37.8 µM
same,TGI,[42],32 µM
same,TGI,[43],18.3 µM
same,TGI,[44],21.1 µM
same,TGI,[45],22 µM
same,TGI,[46],27.5 µM
same,TGI,[47],33.5 µM
same,TGI,[48],> 100 µM
same,TGI,[49],30 µM
same,TGI,[51],39.6 µM
same,TGI,[52],18 µM
same,TGI,[54],22.4 µM
same,TGI,[55],17.2 µM
COCC1OC(N2C(=O)NC(=O)[C@@H]3C=C4CCCCC4=C[C@@H]32)C(OC)C1OC (some centres not stated),TGI,[2],> 100 µM
same,TGI,[4],> 100 µM
same,TGI,[5],> 100 µM
same,TGI,[6],> 100 µM
same,TGI,[7],> 100 µM
same,TGI,[8],> 100 µM
same,TGI,[9],> 100 µM
same,TGI,[10],> 100 µM
same,TGI,[11],> 100 µM
same,TGI,[13],> 100 µM
same,TGI,[14],> 100 µM
same,TGI,[15],> 100 µM
same,TGI,[16],> 100 µM
same,TGI,[56],> 100 µM
same,TGI,[17],> 100 µM
same,TGI,[18],> 100 µM
same,TGI,[19],> 100 µM
same,TGI,[20],> 100 µM
same,TGI,[21],> 100 µM
same,TGI,[22],> 100 µM
same,TGI,[23],> 100 µM
same,TGI,[59],> 100 µM
same,TGI,[24],> 100 µM
same,TGI,[25],> 100 µM
same,TGI,[27],> 100 µM
same,TGI,[28],> 100 µM
same,TGI,[29],> 100 µM
same,TGI,[30],> 100 µM
same,TGI,[31],> 100 µM
same,TGI,[32],> 100 µM
same,TGI,[33],> 100 µM
same,TGI,[34],> 100 µM
same,TGI,[58],> 100 µM
same,TGI,[35],> 100 µM
same,TGI,[36],> 100 µM
same,TGI,[38],> 100 µM
same,TGI,[39],> 100 µM
same,TGI,[40],> 100 µM
same,TGI,[41],> 100 µM
same,TGI,[42],> 100 µM
same,TGI,[43],> 100 µM
same,TGI,[44],> 100 µM
same,TGI,[45],> 100 µM
same,TGI,[46],> 100 µM
same,TGI,[47],> 100 µM
same,TGI,[48],> 100 µM
same,TGI,[49],> 100 µM
same,TGI,[50],> 100 µM
same,TGI,[51],> 100 µM
same,TGI,[52],> 100 µM
same,TGI,[54],> 100 µM
same,TGI,[55],> 100 µM
